Data set [1] can be described thus: stabilization test for active sulfur molecules (residual GS-SS-SG by LC-MS/MS). Type of data set: physicochemical. The settings on record: 1 mM alkylating agent, 10 μM GS-SS-SG, pH 7.0, 37° C., FIG. 6; for active sulfur molecules stabilization (inhibition of GS-SS-SG autolysis): up to 4 hours. Here is the method:
Next, the stabilization effect of active sulfur molecules of each alkylating agent containing the new tyrosine derivative was evaluated. Oxidized glutathione tetrasulfide (GS-SS-SG) was used as a model compound for the active sulfur molecules.
The following were mixed: 50 μL of 200 mM phosphate buffer (pH 7.0) (final concentration: 100 mM), 5 μL of 20 mM alkylating agent (TME-IAM, HPE-IAM, MBB, IAM) or DMSO (final concentration: 1 mM), 10 μL of 100 μM GS-SS-SG (final concentration: 10 μM), and 35 μL of ultrapure water; and the mixture was incubated at 37° C. while shielding light. One, 2, 3, and 4 hours after the start of the reaction, 10 μL of the reaction solution and 90 μL of 0.1% formic acid were mixed, thereby terminating the reaction. By performing the LC-MS/MS by using unreacted 1 μM GS-SS-SG as standard, a residual amount of the GS-SS-SG in the reaction solution was analyzed.

A short description of data set [2]: reactivity with cysteine hydropolysulfide, adducts by LC-ESI-MS/MS. It is filed as physicochemical. The settings on record: 1 mM agent, one hour at 37° C., CysS-(S)n—H from 100 μM cystine and 300 μM Na2S2; FIG. 10. As for the experimental part: The reactivity of TME-IAM with respect to cysteine hydropolysulfide [CysS-(S)n—H] was verified as compared to HPE-IAM as indicated below.
CysSSH/CysS-(S)n—H which was prepared by incubating 100 μM cystine and 300 μM Na2S2 for 5 minutes at 37° C. was made to react with TME-IAM or HPE-IAM (1 mM each) for one hour at 37° C.
Next, its reaction mixture was provided to the LC-ESI-MS/MS analysis and respective adducts for CysSH/CysS-(S)n—H and HS^− (bis-S-adduct) were detected.
Incidentally, the concentration of each compound as sulfur is calculated according to the following formula: a concentration as sulfur=a concentration as the compound×the number of sulfur atoms in the compound (for example, in a case of CysSSH, the concentration as sulfur=2×[CysSSH]). Referring to FIG. 10, the concentrations of each adduct as the compound and sulfur are indicated as a bar with slanted stripes and a bar without stripes, respectively.

Data set [3] in a line: reactivity with hydrogen sulfide (Na2S), adducts by LC-ESI-MS/MS. Type of data set: physicochemical. The settings on record: 0.1 mM or 1 mM agent, 0.1 mM Na2S, one hour at 37° C.; FIG. 12. As for the experimental part:
The incubation of 0.1 mM or 1 mM TME-IAM (right side in FIG. 12) or MBB (left side in FIG. 12) was performed for one hour at 37° C. under the existence of 0.1 mM Na2S. As a result, the HS-adduct and the bis-S-adduct in the reaction mixture were respectively detected by the LC-ESI-MS/MS analysis.
The reaction mixture was separated by the Alliance e2695 system equipped with a YMC-Triart C18 column (inside diameter. 50×2.0 mm) and was then eluted with a linear gradient (30-99% for 5 minutes) by using methanol as a mobile phase under the existence of 0.1% FA (formic acid) at a flow speed of 0.3 mL/min at 40° C.

For data set [4] the following is noted: 37° C., neutral pH (pH 7.0); stated as known; cited from earlier work.
Data set [5] is described as follows: GS-SS-SG protection effect of N-iodoacetyl tyrosine. The conditions noted are these: compared with TME-IAM; FIG. 13. It is filed as physicochemical. An excerpt: Incidentally, N-iodoacetyl tyrosine is expressed with the following chemical formula.
A short description of data set [6]: reactivity of alkylating agents with cysteine (LC-MS/MS of residual cysteine and cysteine adducts). Type of data set: physicochemical. The settings on record: 1 mM alkylating agent, 0.1 mM cysteine, phosphate buffer pH 7.5, 37° C., 1, 3 and 8 hours; FIG. 5. As for the experimental part: Next, the reactivity between the tyrosine derivative according to the present invention and the active sulfur species was examined.
The following were mixed: 50 μL of 200 mM phosphate buffer (pH 7.5) (final concentration: 50 mM), 2 μL of 100 mM alkylating agent (TME-IAM, TEE-IAM, NAT-IAM, HPE-IAM) or DMSO (final concentration: 1 mM), 2 μL of 10 mM cysteine (final concentration: 0.1 mM), and 146 μL of ultrapure water, and the mixture was incubated at 37° C. while shielding light. One, 3, and 8 hours after the start of the reaction, 10 μL of the reaction solution and 90 μL of 0.1% formic acid were mixed, thereby terminating the reaction. By performing the LC-MS/MS by using unreacted 10 μM cysteine as standard, a residual amount of the cysteine in the reaction solution was analyzed and the generation of cysteine adducts by various kinds of alkylating agents was analyzed.

Data set [7] is described as follows: pH influence test for the GS-SS-SG protection effect. The conditions noted are these: one hour, FIG. 7. Type of data set: physicochemical. As for the experimental part: Next, the pH influence of the GS-SS-SG protection effect of TME-IAM was evaluated. It has been clarified that the active sulfur molecules GS-SS-SG are stable under acid conditions, while they are very unstable under alkali conditions.
The following were mixed: 50 μL of 200 mM phosphate buffer (pH 7.0, 7.5, 8.0) (final concentration: 100 mM) and 5 μL of 20 mM TME-IAM solution (final concentration: 1 mM), 10 μL of 100 μM GS-SS-SG (final concentration: 10 μM), and 35 μL of ultrapure water; and the mixture was incubated at 37° C. while shielding light. One hour after the start of the reaction, 10 μL of the reaction solution and 90 μL of 0.1% formic acid were mixed, thereby terminating the reaction. By performing the LC-MS/MS analysis by using unreacted 1 μM GS-SS-SG as standard, a residual amount of GS-SS-SG in the reaction solution was analyzed.

Data set [8] is described as follows: reaction mole ratio (processing concentration) influence test for the GS-SS-SG protection effect. It is filed as physicochemical. The conditions noted are these: 400-fold higher concentration than GS-SS-SG (10 μM), pH 7.0, 37° C., one hour; FIG. 8. As for the experimental part: In order to detect the active sulfur molecules with high sensitivity, it is important to form a stable derivative. In order to do so, it is necessary to add a high-concentration alkylating agent to a specimen; and it is known that the addition of the high-concentration alkylating agent promotes the decomposition of the active sulfur molecules (NPL 1). So, processing concentration dependency of the active sulfur molecules stabilization activity of TME-IAM was analyzed by using the active sulfur molecules GS-SS-SG.
The following were mixed: 50 μL of 200 mM phosphate buffer (pH 7.0) (final concentration: 100 mM) and 5-20 μL of a TME-IAM solution (final concentration: 0.25, 0.5, 1, 2, 4 mM), 10 μL of 100 μM GS-SS-SG (final concentration: 10 μM), and 20-35 μL of ultrapure water; and the mixture was incubated at 37° C. while shielding light. One hour after the start of the reaction, 10 μL of the reaction solution and 90 μL of 0.1% formic acid were mixed, thereby terminating the reaction. By performing the LC-MS/MS analysis by using unreacted 1 μM GS-SS-SG as standard, a residual amount of GS-SS-SG in the reaction solution was analyzed.

The nature of data set [9]: stabilization of oxidized glutathione polysulfides with different numbers of sulfur atoms. Type of data set: physicochemical. The conditions noted are these: 1 mM TME-IAM, 10 μM GS-SSS-SG, pH 7.0, 37° C., 30 minutes after the processing; FIG. 9. Here is the method:
It has been made clear that compounds with different quantities of sulfur atoms included in the molecules exist in the active sulfur molecules. In general, the compound including a larger number of sulfur atoms has higher reactivity and has unstable molecules. So, the active sulfur molecules stabilization effect of TME-IAM was analyzed by using the active sulfur molecules with different quantities of the contained sulfur atoms. For this analysis, oxidized glutathione pentasulfide (GS-SSS-SG) and oxidized glutathione trisulfide (GS-S-SG) were used in addition to GS-SS-SG.
The following were mixed: 50 μL of 200 mM phosphate buffer (pH 7.0) (final concentration: 100 mM) and 5 μL of […] TME-IAM solution (final concentration: 1 mM), 10 μL of 100 μM oxidized form glutathione polysulfide (GS-SSS-SG, GS-SS-SG, GS-S-SG) (final concentration: 10 μM), and 35 μL of ultrapure water; and the mixture was incubated at 37° C. while shielding light. […] By performing the LC-MS/MS analysis by using each unreacted 1 μM oxidized form glutathione polysulfide (GS-SSS-SG, GS-SS-SG, GS-S-SG) as standard, a residual amount of the oxidized form glutathione polysulfide GS-SSS-SG, GS-SS-SG, GS-S-SG) in the reaction solution was analyzed.

For data set [10], the system named is HEK (human embryonic kidney) 293T cells. Nature of the data set: cell permeability and esterase sensitivity in HEK 293T cells. The conditions noted are these: 1 mM TME-IAM, one hour at 37° C., FIG. 11A. Type of data set: cell-based. As for the experimental part:
(§1) The following test was conducted with regard to cell permeability and esterase sensitivity of TME-IAM. FIG. 11 illustrates representative mass chromatographs of (A) HEK (human embryonic kidney) 293T cells and (B) mice liver homogenate which were processed with TME-IAM.
(§2) After processing the HEK 293T cells for one hour at 37° C. by using 1 mM TME-IAM, they were homogenized by ultrasonication in 80% methanol. The mice liver tissues were also homogenized by ultrasonication in 80% methanol containing 1 mM TME-IAM and were incubated for one hour at 37° C. After centrifugal separation of each of them, the obtained supernatant was collected and then diluted to 10 times by using 0.1% FA (formic acid).
(§3) Next, the mixture was made to undergo the LC-ESI-MS/MS analysis and individual by-products driving from TME-IAM, its glutathione adduct (GS-AM-TME), and esterase dependency cleavage were detected. They are Tyr-IAM ((2-iodoacetyl)-I-tyrosine) and GS-AM-Tyr (GSH adduct of (2-iodoacetyl)-1-tyrosine), respectively.

Data set [11] in a line: esterase-dependent by-product formation in mice liver homogenate in 80% methanol. It is filed as in vitro ADME. The conditions noted are these: mice liver tissues homogenized in 80% methanol containing 1 mM TME-IAM, one hour at 37° C.; FIG. 11B. As for the experimental part:
as §1, §2, §3
Accordingly, in order to evaluate the possibility of forming these derivatives when in vivo samples are used for the reactivity sulfur metabolome analysis, mice liver tissues were prepared in 80% methanol containing 1 mM TME-IAM, homogenized, and incubated for one hour at 37° C., and the obtained samples were analyzed by LC-ESI-MS/MS.

Each structure is given as a SMILES string.

With `O=C(CI)NCCc1ccc(O)cc1` [HPE-IAM, f-(4-hydroxyphenyl) ethyl iodoacetamide, reference compound], the “active sulfur molecules stabilization (inhibition of GS-SS-SG autolysis)” value in data set [1] was “inhibited significantly”. In addition, the “amount of HS− (bis-S adduct) decomposition product” value in data set [2] was “prominently higher than the amount of the product detected by using TME-IAM”.

`Cc1c(C)n2c(CBr)c(C)c(=O)n2c1=O` [MBB, monobromobimane, reference compound]: the “reactivity with hydrogen sulfide” value in data set [3] was “react with hydrogen sulfide and form the bis-S-adduct”. The “effect on decomposition of GS-SS-SG” value in data set [4] is recorded as “decomposition is promoted”.

As to `O=C(CI)N[C@@H](Cc1ccc(O)cc1)C(=O)O` [N-iodoacetyl tyrosine], in [5], the GS-SS-SG protection effect entry was “same level of the GS-SS-SG protection effect as that of TME-IAM”.

Take `CC(=O)NC(Cc1ccc(O)cc1)C(=O)NC(=O)CI` (stereo not drawn) [NAT-IAM]: the “reactivity with the thiol group (cysteine)” value (“reactivity … (cysteine)” below) in data set [6] is “lower reactivity with cysteine than that of TME-IAM and HPE-IAM”.

Take `CCOC(=O)C(Cc1ccc(O)cc1)NC(=O)CI` (stereo not drawn) [TEE-IAM]: in data set [6], the “reactivity … (cysteine)” value is “lower reactivity with cysteine than that of TME-IAM and HPE-IAM”.

On to `COC(=O)[C@H](Cc1ccc(O)cc1)NC(=O)CI` [TME-IAM, N-iodoacetyl tyrosine methyl ester], for which the “reactivity … (cysteine)” value in data set [6] was “same level of reactivity with the thiol group (cysteine) as that of HPE-IAM”. In addition, the GS-SS-SG remained result is given as “approximately 80%” in [1] (incubation for 4 hours) and “approximately 70%” in [7] (1 mM TME-IAM, 10 μM GS-SS-SG, weakly alkaline solution (pH 8.0), 37° C.). For the same compound, the “active sulfur molecules stabilization (inhibition of GS-SS-SG autolysis)” value in [1] was “high active sulfur molecules stabilization activity”. Moreover, the “GS-SS-SG remaining compared with HPE-IAM” value in data set [7] (pH 8.0, 37° C.) is listed as “higher value than that of the system to which the publicly known iodoacetamide derivative HPE-IAM was added”. Further, in [8], the “reduction of GS-SS-SG at high alkylating agent concentration” value was “any significant reduction of GSSSSG was not observed”. In addition, the “decomposition suppression of GS-SSS-SG” value in [9] is “predominant decomposition suppression”. Also, the “amounts of CysSSH and CysSSSH detected” value in [2] is on record as “significantly larger than those detected by using HPE-IAM”. Further, in data set [10], the cell permeability result was “can permeate through cell membranes”. Further, in [11], the “esterase-dependent by-product Tyr-IAM in samples” value is reported as “rarely detected”. The “reactivity with hydrogen sulfide” value in data set [3] is “react with hydrogen sulfide and form the bis-S-adduct”.

The values are drawn from patent publication US20230147021A1, “POLYSULFIDE STABILIZATION” (University Public Corporation Osaka, priority 2020, published 2023).
